Measurements: patent US20070292912A1, “Diffusion-controlling sensor layer” (priority 1999, published 2007)

Assays:
[1] = tested on: Escherichia coli strain SM101 (pEBZ181) recA-lux SOS reporter gene cells; test: Microtitre plate assay with SOS reporter gene system (recA-lux bioluminescence stimulated by ciprofloxacin); assay type: cell-based; conditions: for Rel. bioluminescence: microtitre plate, 28° C., 60 min, relative to CTAB-free reference
From the text: (§1) The reporter gene cell consists of the Escherichia coli strain SM101 which harbours the recombinant plasmid pEBZ181. This plasmid encodes a fusion between the recA promoter from E. coli and the structural genes of the bacterial luminescence of Vibrio fischeri (lux genes C, D, A, B, E and G). To construct the plasmid, the recA promoter-harbouring Bam H I fragment from the plasmid pUA80 [Barbe J, Fernandez de Henestrosa A R, Calero S, and Gilbert I (1991) Chromogenic Method for rapid isolation of recA-like mutants of Gram-negative bacteria. J. Bacteriol. 173: 404-406] was cloned into a derivative of the vector pEBZ112 [Peitzsch N, Eberz G, and Nies D (1998) Alcaligenes eutrophus as a bacterial chromate sensor. Appl. Environm. Microbiol. 64: 453-458] which harbours, inserted into the Nco I site of the luxG gene, a lacZ cassette [Becker A (1993) Analyse der Succinoglycan-Biosyntheseregion von Rhizobium meliloti 2011: Untersuchungen zur Identifizierung des bakteriellen Infektionssignals in der Symbiose mit Luzeme, doctoral thesis, Bielefeld University, Germany]. Plasmid pEBZ181 was transformed by standard methods [Sambrook J, Fritsch E F, and Maniatis T (1989) Molecular cloning: A laboratory manual (2nd edn), Cold Spring Harbor Laboratory Press] into the Escherichia coli strain SMIOI (obtained from E. coli Genetic Stock Center, Yale University, New Haven, USA) and employed for bioimaging experiments.
(§2) Treatment of bacteria with antibacterial agents such as 4-quinolonecarboxylic acids leads to induction of the so-called SOS repair mechanism [Walker C G (1984) Mutagenesis and inducible responses to deoxyribonucleic acid damage in Escherichia coli. Microbiol. Rev. 48: 60-93; Phillips I, Culabras E, Moreno F, and Baquero F (1987) Induction of the SOS response by new 4-quinolones. J. Antimicrob. Chemother. 20: 631-638; Piddock L J V, and Wise R (1987) Induction of the SOS response in Escherichia coli by 4-quinone antimicrobial agents. FEMS Microbiol. Lett. 41: 289-294]. The RecA protein is a main regulator of this repair mechanism, and SOS induction leads to enhanced expression of the recA gene. Measurement of the synthesis of the RecA protein [Little J W and Mount D W (1982) The SOS regulatory system of Escherichia coli. Cell 29: 11-22; Witkin E M (1976) Ultraviolet mutagenesis and inducible DNA repair in Escherichia coli. Bacteriol. Rev. 40: 864-907] or of recA-reporter gene fusions [Nunoshiba T and Nishioka H (1991) Rec-lac test for detecting SOS-inducing activity of environmental genotoxic substances. Mutation Res. 254:71-77] is one possible way of measuring SOS induction and consequently the effect of 4-quinolonecarboxylic acids. Since the strain E. coli SM101 (pEBZ181) harbours a plasmid with a recA-lux reporter gene fusion, it is suitable for detecting 4-quinolonecarboxylic acids or other SOS-inducing compounds. The presence of such compounds leads to enhanced expression of the luciferase gene and thus to a stimulation of bioluminescence.
In both assay formats ciprofloxacin was used for effect-specific induction of the SOS response. The bioluminescence stimulated in the reporter gene system used in this case provided the read-out signal which was recorded by video imaging. In order to test the tolerance of the two bioassay formats to interfering substances, assays were carried out in the presence of cytotoxic cetyltrimethylammonium bromide (CTAB).
Five assay solutions were made up in a 96-well microtitre plate (Dynatech Microlite). A volume of 200 μl contained in each case:
16 μl of reporter gene cell suspension (OD: 1.2 at 660 nm) in 2% LB medium
90 μl of solution of substances 1.-5. in water
1. 25 ng of ciprofloxacin hydrochloride monohydrate
2. 25 ng of ciprofloxacin hydrochloride monohydrate+50 ng of CTAB
3. 25 ng of ciprofloxacin hydrochloride monohydrate+100 ng of CTAB
4. 25 ng of ciprofloxacin hydrochloride monohydrate+200 ng of CTAB
5. 25 ng of ciprofloxacin hydrochloride monohydrate+500 ng of CTAB […]

[2] = tested on: Escherichia coli strain SM101 (pEBZ181) recA-lux SOS reporter gene cells; test: Activity measurement with the diffusion-controlling sensor layer (SOS reporter gene cells in agarose on TLC plate); assay type: cell-based; conditions: for Rel. bioluminescence: sensor layer 2 mm, 28° C., 60 min
From the text: as §1
as §2, with “Mutation Res. 254:71-77] is one possible way of measuring SOS induction and consequently the effect of 4-quinolonecarboxylic acids. Since the strain E. coli SM101 (pEBZ181) harbours a plasmid with a recA-lux reporter gene fusion, it is suitable for detecting 4-quinolonecarboxylic acids or other SOS-inducing compounds. The presence of such compounds leads to enhanced expression of the luciferase gene and thus to a stimulation of bioluminescence.” left out
In both assay formats ciprofloxacin was used for effect-specific induction of the SOS response. The bioluminescence stimulated in the reporter gene system used in this case provided the read-out signal which was recorded by video imaging. […]

Compound: CCCCCCCCCCCCCCCC[N+](C)(C)C.[Br-] [CTAB, cetyltrimethylammonium bromide]
- Rel. bioluminescence ([1]; CTAB 50 ng/200 μl with 25 ng ciprofloxacin hydrochloride monohydrate): 0.88
- Rel. bioluminescence ([1]; CTAB 100 ng/200 μl with 25 ng ciprofloxacin hydrochloride monohydrate): 0.87
- Rel. bioluminescence ([1]; CTAB 200 ng/200 μl with 25 ng ciprofloxacin hydrochloride monohydrate): 0.78
- Rel. bioluminescence ([1]; CTAB 500 ng/200 μl with 25 ng ciprofloxacin hydrochloride monohydrate): 0.44
- reduction in bioluminescence ([1]; microtitre plate format, CTAB concentrations up to 500 ng/200 μl, ciprofloxacin-stimulated): more than 50%
- fall in the bioluminescence (of the initial value) ([1]; microtitre plate format, addition of CTAB, ciprofloxacin-stimulated): about 40%
- Rel. bioluminescence ([2]; CTAB 250 ng/200 μl (calculated analogous concentration) with 10 ng ciprofloxacin hydrochloride monohydrate): 1.002
- Rel. bioluminescence ([2]; CTAB 500 ng/200 μl (calculated analogous concentration) with 10 ng ciprofloxacin hydrochloride monohydrate): 1.023
- bioactivity measurement on addition of CTAB ([2]; sensor layer format, ciprofloxacin-stimulated bioluminescence): not impaired
- relative bioluminescence as a measure of the selective stimulation by ciprofloxacin ([2]; sensor layer format, up to CTAB concentrations of 500 ng/200 μl): remained constant
